According to US11401255B2, “Small molecule activators of Parkin enzyme function” (Mayo Foundation for Medical Education and Research, priority 2016, dated 2022):

Legend:
FLAG-Parkin C431S = FLAG-Parkin C431S (Homo sapiens (Human), UniProt O60260, C431S); test: Ub-charging of FLAG-Parkin C431S (western blot); type: cell-based; conditions: 5 μM or 1 μM, 2 h before 3.5 μM CCCP
Experimental: Another measure of Parkin activation is Ub charging of Parkin. Parkin receives Ub from an E2 enzyme to transfer it to a substrate protein. The Ub is bound by Parkin C431 in an unstable thioester bond. A serine substitution of this amino acid (C431S) leads to a stable oxyester bond. The bound Ub can then be visualized as a band shift in Western blot experiments. HeLa 3×FLAG-Parkin C431S cells were seeded in 12-well plates and allowed to attach overnight. Cells were treated with 5 μM (top panels) or 1 μM (bottom panels) of Compounds 1, 2, 3, 4, and 31 2 h before adding CCCP for another 2 h. 10 μM CCCP was added to positive control (PC) wells whereas all other samples received a low dose concentration of 3.5 μM. Cells were harvested in boiling hot SDS lysis buffer and protein concentration was determined by BCA. Samples were split and left either untreated or were treated with NaOH as indicated. Samples were run on an 8-16% Tris-Glycine gel, blotted onto membranes and probed with antibodies against Flag and pS65-Ub. GAPDH served as a loading control. Band shift indicates Parkin binding to Ubiquitin, which is cleavable with NaOH.
(§1) Cells were harvested in RIPA buffer or NP-40 lysis buffer containing protease and phosphatase inhibitors (Complete and PhosStop, Roche Applied Science) with the exception of Parkin Ub charging experiments where preheated (95° C.) SDS lysis buffer (50 mM Tris pH 7.6, 150 mM NaCl, 1% SDS) was used. Concentration of cell lysates was determined with bicinchoninic acid (Pierce Biotechnology). For Parkin Ub charging experiments, aliquots of lysates were treated with […] for 1 h at 37° C. pH was neutralized with equinormal HCl.
(§2) Protein was subjected to SDS-PAGE using 4-20% or 8-16% Tris-Glycine gels (Invitrogen) and transferred onto polyvinylidene fluoride (PVDF) (Millipore). Membranes were incubated with primary antibodies overnight at 4° C. followed by HRP-conjugated secondary antibodies (1:10,000; Jackson ImmunoResearch Laboratories). Primary antibodies used: beta III tubulin (rabbit, 1:1000, CST, #5568, CST), FLAG (mouse, 1:250,000, Sigma, F3165), GAPDH (mouse, 1:100,000-500,000, Meridian Life science, H86504M), GST (1:10,000, Sigma, G7781), MFN1 (mouse, 1:5,000, Abcam, ab57602), MFN2 (mouse, 1:5,000, Abcam, ab56889), Parkin (mouse, 1:2,000, Cell Signaling, #4211), pSer65-Ub (rabbit, 1:15,000, in-house (Fiesel et al., EMBO Reports (2015) 16:1114-30; Fiesel et al., (2015) Autophagy 11:2125-2126)), TOM70 (rabbit, 1:5,000, Proteintech, 14528-1-AP), UBE2L3 (rabbit, 1:10,000, ProteinTech, 14415-1-AP), VDAC1 (mouse, 1:5,000, Abcam, ab14734), vinculin (mouse, 1:100,000, Sigma, V9131).
HeLa 3×FLAG-Parkin C431S cells were seeded in 6-well plates and allowed to attach overnight. Cells were treated with […] of compounds 5, 21-28, 32, 33, or 43-46 2 h before adding CCCP for another 2 h. 10 VM CCCP was added to positive control (PC) wells, 3.5 μM CCCP to compound (+) and negative control (NC) wells. […] Cells were harvested in boiling hot SDS lysis buffer and protein concentration was determined by BCA. Samples were split and left either untreated or were treated with NaOH as indicated. Samples were run on an 8-16% Tris-Glycine gel, blotted onto membranes and probed with antibodies against Flag. Vinculin served as a loading control. Band shift indicates Parkin binding to Ubiquitin, which is cleavable with NaOH (FIG. 21).

[1] = system: Salmonella typhimurium and Escherichia coli tester strains; test: Bacterial reverse mutation assay (Ames Test), all tester strains; conditions: for mutagenic potential for the tester strains: 50, 100 and 200 μM; for precipitate in strain-compound-GM medium mixture: final concentration 200 μM
Excerpt: The test used amino acid-dependent strains of Salmonella typhimurium and Escherichia coli to detect point mutations which involved substitution, addition or deletion of one or a few DNA base pairs. Point mutations were introduced in the histidine (Salmonella typhimurium) or the tryptophan (Escherichia coli) operon, making the tester strains incapable of producing these amino acids. The test detected mutations that revert the mutations present in the bacteria, restoring the functional capability to synthesize histidine or tryptophan. The revertant bacteria were detected by the ability to grow in the absence of the amino acid required by the parent test strain. A mutagenic potential of a tested compound was assessed by exposing these bacterial strains to different concentrations of the compounds and estimating number of revertant colonies grown in the absence (trace quantities) of the amino acid.
DMSO was used as the negative control.
For each experiment, tester strain cultures were grown overnight in Oxoid nutrient broth #2 at 37° C. with shaking at 235 rpm to a density of 1-2×10^9 colony forming units/mL (OD540˜2).
The tester strain (10 μL of night culture) was mixed with the test agent (10 µL of the DMSO stock) and GM liquid medium (30 μL). The obtained mixture was incubated at room temperature for 5 min in a sterile 1.5 mL tube. Then, to the tube was added 200 μL of molten top agar stored at 44° C. to prevent solidifying. After mixing with a pipette, the mixture was poured onto the surface of a GM agar plate (2.0 mL of GM agar per plate). After solidifying the top agar, the plate was inverted and incubated at 37° C. for 48 hours. Then, results were expressed as number of revertant colonies per plate.

Parkin = Parkin (Homo sapiens (Human), UniProt O60260); test: Parkin substrates and pS65-Ub western blot in HeLa cells stably expressing untagged Parkin; type: cell-based; conditions: 5 μM, 2 h, then 3.5 μM CCCP
Experimental: (§3) HeLa cells stably expressing untagged Parkin were left untreated or pre-treated with 5 μM of Compounds 1, 2, 3, 4, and 31 for 2 h and treated without (−) or with (+) low dose CCCP (3.5 μM CCCP). As a positive control (PC), some cells were treated with 10 μM CCCP. Lysates were loaded onto 8-16% Tris-Glycine gels, blotted onto membranes and probed with antibodies against Parkin substrates.
as §3, with “The” for “As a”, “(PC) was” for “(PC), some cells were”, “CCCP for 2 h.” for “CCCP.”, “pS65-Ub.” for “Parkin substrates.”
as §1, §2
As readout for its activation, a catalytic site mutant that can be used to trap Ub-charged Parkin was employed. […] To further validate effects on enhanced activation, we used HeLa cells expressing untagged native Parkin. PC treatment with 10 μM CCCP induced pSer65-Ub signals and the complete degradation of some substrates (e.g., Mitofusins) while the most abundant, VDAC1, was still ubiquitylated (FIG. 8). Similar effects were seen when cells had been pre-incubated with 5 μM of compound before a low dose CCCP, which had no effect on its own.

SMILES | Ub-charging of FLAG-Parkin C431S (WB) (FLAG-Parkin C431S) | mutagenic potential for the tester strains [1] | precipitate in strain-compound-GM medium mixture [1] | Parkin substrate levels (ubiquitination and degradation) (Parkin) | pS65-Ub signal (western blot) (Parkin)
O=C(Cn1cnc2c1CCCC2)Nc1ccc(-c2ccccc2)cc1 [Compound 1] | enhanced Ub-charging | no mutagenic potential | Precipitate was observed | reduced substrate levels | robust induction of pS65-Ub
CC(C)c1nccn1CC(=O)Nc1ccc(-c2ccccc2)cc1 [Compound 2] | enhanced Ub-charging | no mutagenic potential | – | reduced substrate levels | robust induction of pS65-Ub
CC(C)(C)Sc1ccc(NC(=O)Cn2ccnc2)cc1 [Compound 3] | enhanced Ub-charging | – | – | reduced substrate levels | robust induction of pS65-Ub
O=C(Cn1ccnc1-c1ccccn1)Nc1ccc(-c2ccccc2)cc1 [Compound 4] | enhanced Ub-charging | no mutagenic potential | Precipitate was observed | reduced substrate levels | robust induction of pS65-Ub
Cc1nc2c(c(N3CCCN(Cc4ccccc4)CC3)n1)CCCC2 [Compound 31] | enhanced Ub-charging | no mutagenic potential | – | reduced substrate levels | robust induction of pS65-Ub
